The record followed here is patent US12570662B2, “Substituted pyrrolo[1,2-b]pyridazines as bifunctional degraders of interleukin-1 receptor-associated kinases” (Nurix Therapeutics, Inc., priority 2021, dated 2026).

In this assay the target is T1, IRAK4 (Homo sapiens, UniProt Q9NWZ3).
T1 construct: C-terminal HiBiT-tagged Jurkat cells (polyclonal cell line or clone 8D5); endogenous in cells; host or cells: Jurkat cells (polyclonal cell line or clone 8D5), HiBiT-tagged
T1 sequence (Q9NWZ3 1-460): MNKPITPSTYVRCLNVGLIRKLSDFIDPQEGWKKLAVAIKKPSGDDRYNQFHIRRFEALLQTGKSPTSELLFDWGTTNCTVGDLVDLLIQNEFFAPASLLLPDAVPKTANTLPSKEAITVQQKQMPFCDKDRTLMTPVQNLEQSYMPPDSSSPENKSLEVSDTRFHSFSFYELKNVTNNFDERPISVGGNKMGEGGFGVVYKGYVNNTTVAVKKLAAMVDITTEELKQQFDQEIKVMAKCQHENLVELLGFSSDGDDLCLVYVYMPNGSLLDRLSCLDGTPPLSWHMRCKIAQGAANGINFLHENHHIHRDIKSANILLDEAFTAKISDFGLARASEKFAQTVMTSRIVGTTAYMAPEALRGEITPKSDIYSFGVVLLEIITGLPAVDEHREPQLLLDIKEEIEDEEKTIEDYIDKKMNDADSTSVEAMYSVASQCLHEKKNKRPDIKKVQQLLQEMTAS
Put plainly: IRAK4 Degradation HiBit Assay. Format: cell-based. The conditions noted are these: C-terminal HiBiT-tagged Jurkat cells, 4 hrs incubation; for DC50: % IRAK4 remaining, four-parameter fit (IC50 used as DC50); for Dmax: from fit of % IRAK4 remaining, read-out: Dmax. Put shortly:
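Degradation was quantified by luminescence after adding lytic detection reagent containing LgBiT to HiBiT-tagged Jurkat cells (polyclonal or clone 8D5). Cells were treated 4 h at 32 °C across 11 concentrations from 10 μM to 0.1 nM final. Four-parameter curve fitting of % IRAK4 remaining versus DMSO gave DC50 and Dmax.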

As for `CC(C)Nc1cc(-c2ccc3cc(C#N)cnn23)ncc1-c1nnc(N2CC3CCC(C2)N3CC2CCN(c3ccc([C@@H]4CCC(=O)NC4=O)cc3)CC2)s1` (single isomer, unassigned) [Example 121], half-maximal degradation (DC50) was put at 0.073 µM and the Dmax is 88%.
The corresponding values for `N#Cc1cnn2c(-c3cc(NC4CC4)c(-c4nnc(N5CCN(CC6CCN(c7ccc([C@@H]8CCC(=O)NC8=O)cn7)CC6)CC5)s4)cn3)ccc2c1` (single isomer, unassigned) [Example 119] are 0.03 µM and 111%.
In the case of `N#CCNc1cc(-c2ccc3cc(C#N)cnn23)ncc1-c1nnc(N2CC3CCC(C2)N3CC2CCN(c3ccc([C@@H]4CCC(=O)NC4=O)cc3)CC2)s1` (single isomer, unassigned) [Example 128], half-maximal degradation (DC50) was put at 0.006 µM and the Dmax was 111%.
The corresponding values for `CNc1cc(-c2ccc3cc(C#N)cnn23)ncc1-c1nnc([C@H]2CC[C@H](CN3CCC(c4ccc([C@@H]5CCC(=O)NC5=O)cn4)CC3)CC2)s1` (racemic) [Example 38, 7-[4-(methylamino)-5-{5-[(1r,4r)-4-[(4-{5-[(3RS)-2,6-dioxopiperidin-3-yl]pyridin-2-yl}piperidin-1-yl)methyl]cyclohexyl]-1,3,4-thiadiazol-2-yl}pyridin-2-yl]pyrrolo[1,2-b]pyridazine-3-carbonitrile] are 0.012 µM and 109%.
The corresponding values for `CC(C)Nc1cc(-c2ccc3cc(C#N)cnn23)ncc1-c1nnc(N2CC3CCC(C2)N3CC2CCN(c3ccc([C@@H]4CCC(=O)NC4=O)cn3)CC2)s1` (single isomer, unassigned) [Example 122] are 0.058 µM and 105%.
Turning to `CC(C)Nc1cc(-c2ccc3cc(C#N)cnn23)ncc1-c1nnc(N2CCN(C[C@@H]3CCN(c4ccc([C@H]5CCC(=O)NC5=O)cn4)C3)CC2)s1` (racemic) [Example 10, 7-{5-[5-(4-{[(3RS)-1-{5-[(3RS&)-2,6-dioxopiperidin-3-yl]pyridin-2-yl}pyrrolidin-3-yl]methyl}piperazin-1-yl)-1,3,4-thiadiazol-2-yl]-4-[(propan-2-yl)amino]pyridin-2-yl}pyrrolo[1,2-b]pyridazine-3-carbonitrile], the DC50 worked out at 0.041 µM and the Dmax is 71%.
For `N#Cc1cnn2c(-c3cc(NC4CCOCC4)c(-c4nnc(N5CCN(CC6CCN(c7ccc([C@@H]8CCC(=O)NC8=O)cn7)CC6)CC5)s4)cn3)ccc2c1` (single isomer, unassigned) [Example 31], in that order: 0.16 µM and 53%.
For `N#Cc1cnn2c(-c3cc(NC4CCOCC4)c(-c4nnc(N5CCN(CC6CCN(c7ccc(C8CCC(=O)NC8=O)cn7)CC6)CC5)s4)cn3)ccc2c1` (racemic) [Example 43, 7-(5-{5-[4-({1-[5-(2,6-dioxopiperidin-3-yl)pyridin-2-yl]piperidin-4-yl}methyl)piperazin-1-yl]-1,3,4-thiadiazol-2-yl}-4-(oxan-4-ylamino)pyridin-2-yl)pyrrolo[1,2-b]pyridazine-3-carbonitrile], in that order: 0.014 µM and 111%.
The corresponding values for `N#CCNc1cc(-c2ccc3cc(C#N)cnn23)ncc1-c1nnc(N2CCN(CC3CCN(c4ccc([C@@H]5CCC(=O)NC5=O)cn4)CC3)CC2)s1` (single isomer, unassigned) [Example 132] are 0.013 µM and 111%.
With `CC1(Nc2cc(-c3ccc4cc(C#N)cnn34)ncc2-c2nnc(N3CCN(CC4CCN(c5ccc(C6CCC(=O)NC6=O)cn5)CC4)CC3)s2)COC1` (racemic) [Example 58, rac-7-[5-(5-{4-[(1-{5-[(3R)-2,6-dioxopiperidin-3-yl]pyridin-2-yl}piperidin-4-yl)methyl]piperazin-1-yl}-1,3,4-thiadiazol-2-yl)-4-[(3-methyloxetan-3-yl)amino]pyridin-2-yl]pyrrolo[1,2-b]pyridazine-3-carbonitrile], the 50% degradation concentration (DC50) came to 0.021 µM and the Dmax came to 113%.
The corresponding values for `N#Cc1cnn2c(-c3cc(NC4CCOCC4)c(-c4nnc(C56CCC(C(=O)N7CCN(c8ccc(C9CCC(=O)NC9=O)cn8)CC7)(CC5)CC6)s4)cn3)ccc2c1` (racemic) [Example 22, rac-7-(5-{5-[4-(4-{5-[(3R)-2,6-dioxopiperidin-3-yl]pyridin-2-yl}piperazine-1-carbonyl)bicyclo[2.2.2]octan-1-yl]-1,3,4-thiadiazol-2-yl}-4-[(oxan-4-yl)amino]pyridin-2-yl)pyrrolo[1,2-b]pyridazine-3-carbonitrile] are 0.023 µM and 84%.
On to `CC(C)Nc1cc(-c2ccc3cc(C#N)cnn23)ncc1-c1nnc(N2CCN(CC3CCN(c4ccc([C@@H]5CCC(=O)NC5=O)cn4)CC3)CC2)s1` (single isomer, unassigned) [Example 118], for which it took 0.049 µM to reach half-maximal degradation (DC50) and the Dmax stood at 110%.
For `CNc1cc(-c2ccc3cc(C#N)cnn23)ncc1-c1nnc(N2CCC(N3CCN(CC4CCN(c5ccc(C6CCC(=O)NC6=O)cn5)CC4)CC3)CC2)s1` (racemic) [Example 50, 7-[5-(5-{4-[4-({1-[5-(2,6-dioxopiperidin-3-yl)pyridin-2-yl]piperidin-4-yl}methyl)piperazin-1-yl]piperidin-1-yl}-1,3,4-thiadiazol-2-yl)-4-(methylamino)pyridin-2-yl]pyrrolo[1,2-b]pyridazine-3-carbonitrile], in that order: 0.091 µM and 111%.
The corresponding values for `N#Cc1cnn2c(-c3cc(NC4CC4)c(-c4nnc(N5CCN(CC6CCN(c7ccc(C8CCC(=O)NC8=O)cn7)CC6)CC5)s4)cn3)ccc2c1` (racemic) [Example 67, rac-7-[4-(cyclopropylamino)-5-(5-{4-[(1-{5-[(3R)-2,6-dioxopiperidin-3-yl]pyridin-2-yl}piperidin-4-yl)methyl]piperazin-1-yl}-1,3,4-thiadiazol-2-yl)pyridin-2-yl]pyrrolo[1,2-b]pyridazine-3-carbonitrile] are 0.038 µM and 85%.
As to `N#Cc1cnn2c(-c3cc(NC4CC4)c(-c4nnc(N5CCN(CC6CCN(c7ccc(N8CCC(=O)NC8=O)cn7)CC6)CC5)s4)cn3)ccc2c1` [Example 78, 7-[4-(cyclopropylamino)-5-{5-[4-({1-[5-(2,4-dioxo-1,3-diazinan-1-yl)pyridin-2-yl]piperidin-4-yl}methyl)piperazin-1-yl]-1,3,4-thiadiazol-2-yl}pyridin-2-yl]pyrrolo[1,2-b]pyridazine-3-carbonitrile], it took 0.019 µM to reach half-maximal degradation (DC50) and the Dmax was found to be 111%.
For `CNc1cc(-c2ccc3cc(C#N)cnn23)ncc1-c1nnc(N2CC3(CCN(C(=O)C4CCN(c5ccc(C6CCC(=O)NC6=O)cn5)CC4)CC3)C2)s1` (racemic) [Example 40, rac-7-(5-{5-[7-(1-{5-[(3R)-2,6-dioxopiperidin-3-yl]pyridin-2-yl}piperidine-4-carbonyl)-2,7-diazaspiro[3.5]nonan-2-yl]-1,3,4-thiadiazol-2-yl}-4-(methylamino)pyridin-2-yl)pyrrolo[1,2-b]pyridazine-3-carbonitrile], in that order: 0.019 µM and 114%.
Consider `CNc1cc(-c2ccc3cc(C#N)cnn23)ncc1-c1nnc(N2CC3CCC(C2)N3C(=O)C2CCN(c3ccc([C@H]4CCC(=O)NC4=O)cn3)CC2)s1` (racemic) [Example 46, rac-7-(5-{5-[8-(1-{5-[(3R)-2,6-dioxopiperidin-3-yl]pyridin-2-yl}piperidine-4-carbonyl)-3,8-diazabicyclo[3.2.1]octan-3-yl]-1,3,4-thiadiazol-2-yl}-4-(methylamino)pyridin-2-yl)pyrrolo[1,2-b]pyridazine-3-carbonitrile], for which the DC50 was 0.006 µM and the Dmax was found to be 111%.
The corresponding values for `CC(C)Nc1cc(-c2ccc3cc(C#N)cnn23)ncc1-c1nnc(N2CCN(CC3CCN(c4ccc(C5CCC(=O)NC5=O)cn4)CC3)C3(CC3)C2)s1` (racemic) [Example 7, rac-7-[5-(5-{4-[(1-{5-[(3R)-2,6-dioxopiperidin-3-yl]pyridin-2-yl}piperidin-4-yl)methyl]-4,7-diazaspiro[2.5]octan-7-yl}-1,3,4-thiadiazol-2-yl)-4-[(propan-2-yl)amino]pyridin-2-yl]pyrrolo[1,2-b]pyridazine-3-carbonitrile] are 0.129 µM and 17%.
For `N#Cc1cnn2c(-c3cc(NC4CC4)c(-c4nnc(N5CCN(CC6CCN(c7ccc(N8CCC(=O)NC8=O)cc7)CC6)CC5)s4)cn3)ccc2c1` [Example 83, 7-[4-(cyclopropylamino)-5-{5-[4-({1-[4-(2,4-dioxo-1,3-diazinan-1-yl)phenyl]piperidin-4-yl}methyl)piperazin-1-yl]-1,3,4-thiadiazol-2-yl}pyridin-2-yl]pyrrolo[1,2-b]pyridazine-3-carbonitrile], in that order: 0.052 µM and 80%.
